In brackets after ≈: the same amount, converted by molar mass.
Columns and labels:
Assay in all cases: In-vitro activity against dermatophytes, MIC
Assay type in all cases: cell-based
Epidermophyton floccosum = conditions: 5 isolates
Trichophyton soudanense = conditions: 3 isolates
Microsporum canis = conditions: 5 isolates
[1] = test system: Trichophyton mentagrophytes; conditions: 18 isolates
Trichophyton violaceum = conditions: 3 isolates
Trichophyton rubrum = conditions: 20 isolates
Microsporum gypseum = conditions: 5 isolates
Microsporum cookie = conditions: 2 isolates
Trichophyton tonsurans = conditions: 16 isolates

CCC(C)n1ncn(-c2ccc(N3CCN(c4ccc(OCC5COC(Cn6cncn6)(c6ccc(Cl)cc6Cl)O5)cc4)CC3)cc2)c1=O (stereo not drawn) [ITC, Itraconazole]
MIC Range, Epidermophyton floccosum (Epidermophyton floccosum): 0.063 to 0.5 µg/mL
MIC (Epidermophyton floccosum; Epidermophyton floccosum, read-out: MIC GM, Epidermophyton floccosum): 0.226 µg/mL (≈ 0.32 µM)
MIC Range, Trichophyton soudanense (Trichophyton soudanense): 1 to 4 µg/mL
MIC (Trichophyton soudanense; Trichophyton soudanense, read-out: MIC GM, Trichophyton soudanense): 3.42 µg/mL (≈ 4.85 µM)
MIC Range, Microsporum canis (Microsporum canis): 0.25 to 8 µg/mL
MIC (Microsporum canis; Microsporum canis, read-out: MIC GM, Microsporum canis): 1.23 µg/mL (≈ 1.74 µM)
MIC Range, Trichophyton mentagrophytes [1]: 0.125 to 4 µg/mL
MIC50 ([1]; Trichophyton mentagrophytes): 2 µg/mL (≈ 2.83 µM)
MIC90 ([1]; Trichophyton mentagrophytes): 4 µg/mL (≈ 5.67 µM)
MIC ([1]; Trichophyton mentagrophytes, read-out: MIC GM, Trichophyton mentagrophytes): 1.68 µg/mL (≈ 2.38 µM)
MIC Range, Trichophyton violaceum (Trichophyton violaceum): 2 to 8 µg/mL
MIC (Trichophyton violaceum; Trichophyton violaceum, read-out: MIC GM, Trichophyton violaceum): 3.3 µg/mL (≈ 4.68 µM)
MIC Range, Trichophyton rubrum (Trichophyton rubrum): 0.25 to 4 µg/mL
MIC50 (Trichophyton rubrum; Trichophyton rubrum, MIC at which 50% of the isolates were inhibited): 2 µg/mL (≈ 2.83 µM)
MIC90 (Trichophyton rubrum; Trichophyton rubrum, MIC at which 90% of the isolates were inhibited): 4 µg/mL (≈ 5.67 µM)
MIC (Trichophyton rubrum; Trichophyton rubrum, read-out: MIC GM (geometric mean of the MICs), Trichophyton rubrum): 1.96 µg/mL (≈ 2.77 µM)
MIC Range, Microsporum gypseum (Microsporum gypseum): 1 to 8 µg/mL
MIC (Microsporum gypseum; Nannizzia gypsea, read-out: MIC GM, Microsporum gypseum): 3.68 µg/mL (≈ 5.22 µM)
MIC Range, Microsporum cookie (Microsporum cookie): 4 to 8 µg/mL
MIC (Microsporum cookie; Microsporum, read-out: MIC GM, Microsporum cookie): 6 µg/mL (≈ 8.5 µM)
MIC Range, Trichophyton tonsurans (Trichophyton tonsurans): 0.25 to 4 µg/mL
MIC50 (Trichophyton tonsurans; Trichophyton tonsurans): 2 µg/mL (≈ 2.83 µM)
MIC90 (Trichophyton tonsurans; Trichophyton tonsurans): 4 µg/mL (≈ 5.67 µM)
MIC (Trichophyton tonsurans; Trichophyton tonsurans, read-out: MIC GM, Trichophyton tonsurans): 1.65 µg/mL (≈ 2.33 µM)
